Laboratory results published in patent publication US20090137549A1, “Novel compounds useful for the treatment of degenerative & inflamatory diseases” (priority 2006, published 2009).

molecular target: PDE1A (Homo sapiens, UniProt P54750); test: PDE1A dose response, Cyclic Nucleotide Phosphodiesterase Assay Kit from Biomol (colorimetric); format: biochemical; conditions: purified PDE1A enzyme, 100 μM cAMP
Procedure, shortened: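 Purified PDE1A hydrolysed 100 μM cAMP with 5′-nucleotidase in Tris 20 mM pH 7.4 with calmodulin, Ca2+, Mg2+, 45 min at 37° C. Released phosphate read by malachite-green absorbance at 615 nm. Duplicate 8-point 1/3 dilutions from 20 μM, 1% DMSO; 10 μM vardenafil defined 100% inhibition.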

SMILES | IC50
CC(=O)Nc1ccc(C(=O)N2CCCC(c3nc4c(c(C)nn4C4CCCCC4)c(=O)[nH]3)C2)cc1 (stereo not shown) [Example 113, N-(4-(3-(1-cyclohexyl-3-methyl-4-oxo-4,5-dihydro-1H-pyrazolo[3,4-d]pyrimidin-6-yl)piperidine-1-carbonyl)phenyl)acetamide] | 1000 to 1500 nM
CCc1nn(C2CCCCC2)c2nc(C3CN(C(=O)Nc4ccccc4OC(F)F)C3)[nH]c(=O)c12 [Example 114, 3-(1-cyclohexyl-3-ethyl-4-oxo-4,5-dihydro-1H-pyrazolo[3,4-d]pyrimidin-6-yl)-N-(2-(difluoromethoxy)phenyl)azetidine-1-carboxamide] | 501 to 1000 nM
Cc1nn(C2CCCCC2)c2nc(C3CN(C(=O)OCc4ccccc4)C3)[nH]c(=O)c12 [Example 115, Benzyl 3-(1-cyclohexyl-3-methyl-4-oxo-4,5-dihydro-1H-pyrazolo[3,4-d]pyrimidin-6-yl)azetidine-1-carboxylate] | 101 to 500 nM
CC(C)N1CCN(c2ccc(OC(=O)N3CC(c4nc5c(cnn5C(C)(C)C)c(=O)[nH]4)C3)cc2)CC1 [Example 116, 4-(4-Isopropylpiperazin-1-yl)phenyl 3-(1-tert-butyl-4-oxo-4,5-dihydro-1H-pyrazolo [3,4-d]pyrimidin-6-yl)azetidine-1-carboxylate] | 1 to 100 nM
CC(C)(C)n1ncc2c(=O)[nH]c(C3CN(C(=O)OCC4CCCCC4)C3)nc21 [Example 117, cyclohexylmethyl 3-(1-tert-butyl-4-oxo-4,5-dihydro-1H-pyrazolo[3,4-d]pyrimidin-6-yl)azetidine-1-carboxylate] | 1 to 100 nM
CC(C)(C)n1ncc2c(=O)[nH]c(C3CN(C(=O)Oc4cccc(Cl)c4)C3)nc21 [Example 118, 3-chlorophenyl 3-(1-tert-butyl-4-oxo-4,5-dihydro-1H-pyrazolo[3,4-d]pyrimidin-6-yl)azetidine-1-carboxylate] | 1 to 100 nM
CC(C)(C)n1ncc2c(=O)[nH]c(C3CN(C(=O)Oc4ccc5c(c4)OCO5)C3)nc21 [Example 119, benzo[d][1,3]dioxol-5-yl 3-(1-tert-butyl-4-oxo-4,5-dihydro-1H-pyrazolo[3,4-d]pyrimidin-6-yl)azetidine-1-carboxylate] | 1 to 100 nM
O=C(OCC1CCCCC1)N1CC(c2nc3c(cnn3C3CCCCC3)c(=O)[nH]2)C1 [Example 120, cyclohexylmethyl 3-(1-cyclohexyl-4-oxo-4,5-dihydro-1H-pyrazolo[3,4-d]pyrimidin-6-yl)azetidine-1-carboxylate] | 1 to 100 nM
O=C(Oc1ccc(F)cc1)N1CC(c2nc3c(cnn3C3CCCCC3)c(=O)[nH]2)C1 [Example 121, 4-fluorophenyl 3-(1-cyclohexyl-4-oxo-4,5-dihydro-1H-pyrazolo[3,4-d]pyrimidin-6-yl)azetidine-1-carboxylate] | 1 to 100 nM
CC(C)(C)COC(=O)N1CC(c2nc3c(cnn3C3CCCCC3)c(=O)[nH]2)C1 [Example 122, neopentyl 3-(1-cyclohexyl-4-oxo-4,5-dihydro-1H-pyrazolo[3,4-d]pyrimidin-6-yl)azetidine-1-carboxylate] | 101 to 500 nM
Cc1nn(C2CCCCC2)c2nc(C3CN(C(=O)OC(C)(C)C)C3)[nH]c(=O)c12 [Example 123, tert-butyl 3-(1-cyclohexyl-3-methyl-4-oxo-4,5-dihydro-1H-pyrazolo[3,4-d]pyrimidin-6-yl)azetidine-1-carboxylate] | 101 to 500 nM
Cc1nn(C2CCCCC2)c2nc(C3CCCN(C(=O)Oc4ccccc4)C3)[nH]c(=O)c12 (stereo not shown) [Example 124, phenyl 3-(1-cyclohexyl-3-methyl-4-oxo-4,5-dihydro-1H-pyrazolo[3,4-d]pyrimidin-6-yl)piperidine-1-carboxylate] | 501 to 1000 nM
O=c1[nH]c(C2CN(c3nc4ccccc4[nH]3)C2)nc2c1cnn2C1CCCCC1 [Example 125, 1-Cyclohexyl-6-(1-(1H-benzo[d]imidazol-2-yl)azetidin-3-yl)-1H-pyrazolo[3,4-d]pyrimidin-4-(5H)-one] | 1 to 100 nM
